Common to all, as to experiment: fluorescence quenching titration of drug with DNA
Assay [1] deals with Q0 (DNA, aptamer) GGCGACAAGGAAAATCCTTCAACGAAGTGGGTCGCC
As to conditions: Na+ (50 mM NaH2PO4, adjusted with NaOH); pH 7.00, 20 °C; KD corrected for stoichiometry (per site).

For assay [2], the system named is Q1 (DNA, aptamer) GACAAGGAAAATCCTTCAACGAAGTGGGTCG
Particulars: Na+ (50 mM NaH2PO4, adjusted with NaOH); pH 7.00, 20 °C; KD corrected for stoichiometry (per site).

The subject of assay [3] is Q2 (DNA, aptamer) GGCGACAAGGAAAATCCTTTCACGAAGTGGGTCGCCG
Particulars: Na+ (50 mM NaH2PO4, adjusted with NaOH); pH 7.00, 20 °C; KD corrected for stoichiometry (per site).

The test system of assay [4] is D0-L-thioate (DNA, duplex, phosphorothioate at all 23 linkages) CGCGCGCGCGCGCGCGCGCGCGCG
Particulars: in serum (mouse serum), 37 °C, KD corrected for stoichiometry (per site).

Assay [5] deals with D2 (DNA, G4) GGTTGGTGTGGTTGG
As to conditions: K+ (50 mM K2HPO4, 100 mM KCl per Methods; Table S2 says phosphate sodium), pH 7.00, 20 °C, KD corrected for stoichiometry (per site).

Assay [6] deals with D0-thioate (D0-PS) (DNA, duplex, phosphorothioate at all 11 linkages) CGCGCGCGCGCG
As to conditions: in serum (mouse serum), 37 °C, KD corrected for stoichiometry (per site).

The subject of assay [7] is D1 (same sequence as G-quad) (DNA, G4) GGGCTTTTGGGC
Particulars: K+ (50 mM K2HPO4, 100 mM KCl per Methods; Table S2 says phosphate sodium), pH 7.00, 20 °C, KD corrected for stoichiometry (per site).

Assay [8] has as its system D0-L-thioate-C16 (DNA, duplex, phosphorothioate at all 23 linkages) CGCGCGCGCGCGCGCGCGCGCGCG
As to conditions: in serum (mouse serum), 37 °C, KD corrected for stoichiometry (per site).

Assay [9] deals with D0 (DNA, duplex) CGCGCGCGCGCG
As to conditions: Na+ (50 mM Na2HPO4, 100 mM NaCl), pH 7.00, 20 °C, KD corrected for stoichiometry (per site).

A word on the KD: it is the free concentration of one partner at which half of the binding sites on the other are occupied at equilibrium, for simple one-to-one binding. On to `C=C[C@H]1CN2CC[C@H]1C[C@H]2[C@H](O)c1ccnc2ccc(OC)cc12`, for which the KD in assay [1] was found to be 89.7 ± 10 nM; in assay [2], 198 ± 6 nM; in assay [3] it was 2740 ± 200 nM.
With `COc1cccc2c1C(=O)c1c(O)c3c(c(O)c1C2=O)C[C@@](O)(C(=O)CO)C[C@@H]3O[C@H]1C[C@H](N)[C@H](O)[C@H](C)O1`, the equilibrium dissociation constant (KD) in assay [4] amounted to 592 ± 100 nM; in [5], 3760 ± 300 nM; in [6], 1020 ± 20 nM; in assay [7], 703 ± 80 nM; in assay [8], 578 ± 100 nM; in assay [9], 133 ± 20 nM.

Values taken from paper PMC9630261 (2022).
